Data taken from patent publication US20260365653A1, “IRREVERSIBLE MUTEGFR INHIBITORS” (Bayer Aktiengesellschaft, priority 2022, published 2026).

Experiments:
[1] = molecular target: T1, mutEGFR (D770_N771insNPG, T790) (Homo sapiens, UniProt P00533, INS770NPG/T790M); assay: mutEGFR (D770_N771insNPG, T790) kinase assay; type: biochemical; details: Table 2a, D770_N771insNPG
T1 construct: exact insNPG construct not described; in-house EGFR proteins were N-terminal GST fusions from baculovirus/insect cells (borders R669-A1210 given only for WT, insSVD, insASV)
Source text: The different EGFR proteins used in the biochemical kinase activity inhibition assays were generated inhouse by expression in insect cells using Baculo Virus system and subsequent purification as described in the following paragraphs.
The cDNAs encoding the various protein sequences from human EGFR human (P00533) were optimized for expression in eukaryotic cells and synthesized by the GeneArt Technology at Life Technologies.

[2] = molecular target: T2, mutEGFR (D770_N771insSVD) (Homo sapiens, UniProt P00533, DUP768-770); assay: Exon20-Mutant-EGFR (D770_N771insSVD) kinase assay (TR-FRET); type: biochemical; details: mutEGFR (D770_N771insSVD) kinase assay IC50, Table 2a; D770_N771insSVD; 2 mM ATP
T2 construct: GST-EGFR #3 (SVD between D770 and N771); made in house; host or cells: Sf9 insect cells (baculovirus)

[3] = tested on: BA/F3 (insSVD) cells; assay: Ba/F3-EGFR-insSVD cell survival assay (Cell Titer-Glo); type: cell-based; details: Table 3a, cell survival, Cell Titer-Glo, with 10 ng/ml EGF, without IL-3
Method: Cellular Data Description (WT, insSVD, insSVD T790M) 293T cells from ATCC were transfected with pBABEpuro expression constructs for WT EGFR or EGFR-insSVD, or EGFR-insSVD T790M, and pCL-Eco packaging vector using Fugene-6 transfection reagent from Promega. Plates were incubated at 37° C. for 48 h. Retrovirus was harvested by filtering the media supernatant through a 0.45 μm filter.
Ba/F3 cells purchased from DSMZ were grown in RPMI+10% FBS+10 ng/ml IL-3 and infected with filtered retroviral supernatant at a 1:2 dilution. Polybrene was added to a concentration of 8 μg/mL, plates were spun for 90 min, and incubated for 16 h at 37° C. 2 μg/mL puromycin was added to the infected cells 24 h after infection and cells were continually grown in the presence of puromycin and 10 ng/ml IL-3. Following stably expressing Ba/F3 cell lines were generated: Ba/F3-EGFR-WT, Ba/F3-EGFR-insSVD, Ba/F3-EGFR-insSVD T790M, (Ba/F3-vector-control).
For cell survival assays, Ba/F3 cells were grown to a density of 1-2 million cells per mL, spun down and resuspended in media without IL-3, and replated at a concentration of 200,000-500,000 cells per mL. The cells ectopically expressing WT EGFR, EGFR-insSVD, or EGFR-insSVD T790M were plated with 10 ng/ml Millipore Culture grade EGF. The cells ectopically expressing pBABEpuro empty vector were plated with 10 ng/mL IL-3.
2 days later, cells were plated in 50 µL in a 384 well plate at a concentration of 4000 cells per well for cells assayed in the absence of IL-3 and 2000 cells per well for cells assayed in the presence of IL-3. 100 nL of compound was added to each well using a 100 nL pin head, and plates were incubated at 37° C. for 48 h.
Cell viability was measured by adding 20 μL of Cell Titer-Glo Luminescent Cell Viability Reagent diluted 1:3 in PBS. Plates were sealed with Perkin Elmer Top-Seal, inverted several times to mix, and immediately centrifuged at 1000 rpm for 2 min. Plates were incubated in low light conditions for 8-10 min and luminescence was measured.

T2 sequence (P00533 with tags, fused parts or gaps DUP768-770): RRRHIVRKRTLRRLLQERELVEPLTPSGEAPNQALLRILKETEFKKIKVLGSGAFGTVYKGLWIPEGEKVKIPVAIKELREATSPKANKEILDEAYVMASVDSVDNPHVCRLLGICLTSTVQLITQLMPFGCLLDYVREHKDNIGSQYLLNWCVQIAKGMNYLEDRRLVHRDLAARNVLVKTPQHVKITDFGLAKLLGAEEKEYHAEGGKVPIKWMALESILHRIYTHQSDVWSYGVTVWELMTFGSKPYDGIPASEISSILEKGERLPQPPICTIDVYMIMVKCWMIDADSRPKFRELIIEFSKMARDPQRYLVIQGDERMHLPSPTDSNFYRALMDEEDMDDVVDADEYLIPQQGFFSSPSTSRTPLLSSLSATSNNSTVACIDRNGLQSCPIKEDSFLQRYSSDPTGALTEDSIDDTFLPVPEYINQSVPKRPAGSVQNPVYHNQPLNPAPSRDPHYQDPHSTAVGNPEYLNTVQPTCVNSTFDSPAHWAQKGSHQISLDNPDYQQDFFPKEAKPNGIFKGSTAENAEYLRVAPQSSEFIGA
T1 sequence (P00533 with tags, fused parts or gaps INS770NPG/T790M limits assumed): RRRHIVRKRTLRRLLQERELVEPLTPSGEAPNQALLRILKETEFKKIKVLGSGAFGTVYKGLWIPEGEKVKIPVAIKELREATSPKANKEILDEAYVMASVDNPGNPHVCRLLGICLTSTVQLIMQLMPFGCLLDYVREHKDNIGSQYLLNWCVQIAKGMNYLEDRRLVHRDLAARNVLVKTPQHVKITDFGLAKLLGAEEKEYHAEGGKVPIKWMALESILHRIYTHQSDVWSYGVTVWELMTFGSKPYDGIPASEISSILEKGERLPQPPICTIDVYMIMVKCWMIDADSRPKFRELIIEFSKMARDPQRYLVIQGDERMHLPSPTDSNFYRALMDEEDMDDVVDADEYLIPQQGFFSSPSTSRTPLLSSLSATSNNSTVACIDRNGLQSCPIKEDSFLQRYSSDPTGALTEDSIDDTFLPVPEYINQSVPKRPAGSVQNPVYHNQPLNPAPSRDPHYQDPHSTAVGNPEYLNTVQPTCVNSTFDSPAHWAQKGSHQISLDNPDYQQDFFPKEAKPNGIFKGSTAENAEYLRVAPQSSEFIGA

Row | Structure (SMILES) | IC50 [1] | IC50 [2] | IC50 ([3]; Mus musculus, BaF3, 48 h) | IC50 ([3]; 48 h)
1 | CC(C)(C)OC(=O)N1CCCC1C#CC(=O)N1CCn2nc(-c3ccc(F)cc3)c(-c3ccncc3)c2C1 (racemic) [Example 87, tert-butyl(2RS)-2-(3-[2-(4-fluorophenyl)-3-(pyridin-4-yl)-6,7-dihydropyrazolo[1,5-a]pyrazin-5(4H)-yl]-3-oxoprop-1-yn-1-yl) pyrrolidine-1-carboxylate] | 82.5 nM | 53.1 nM | 1060 nM | 
2 | O=C(C#CC1CCCN1)N1CCn2nc(-c3ccc(F)cc3)c(-c3ccncc3)c2C1 (racemic) [Example 88, 1-[2-(4-fluorophenyl)-3-(pyridin-4-yl)-6,7-dihydropyrazolo[1,5-a]pyrazin-5(4H)-yl]-3-[(2RS)-pyrrolidin-2-yl]prop-2-yn-1-one] | 15.8 nM | 9.27 nM | 3790 nM | 
3 | CN(C)C/C=C/C(=O)N1Cc2c(-c3ccncc3)c(-c3ccc(F)cc3)nn2C(CO)C1 (racemic) [Example 201, rac-(R,E)-4-(dimethylamino)-1-(2-(4-fluorophenyl)-7-(hydroxymethyl)-3-(pyridin-4-yl)-6,7-dihydropyrazolo[1,5-a]pyrazin-5(4H)-yl) but-2-en-1-one] | 3.42 nM | 1.67 nM | 423 nM | 
4 | CN(C)C/C=C/C(=O)N1Cc2c(-c3ccncc3)c(-c3ccc(F)cc3)nn2C(C(N)=O)C1 (racemic) [Example 202, (7RS)-5-[(2E)-4-(dimethylamino)but-2-enoyl]-2-(4-fluorophenyl)-3-(pyridin-4-yl)-4,5,6,7-tetrahydropyrazolo[1,5-a]pyrazine-7-carboxamide] | 225 nM | 57.4 nM | 9980 nM | 
5 | C=CC(=O)N1Cc2c(-c3ccncc3)c(-c3ccc(F)cc3)nn2C(C(N)=O)C1 (racemic) [Example 204, (7RS)-5-acryloyl-2-(4-fluorophenyl)-3-(pyridin-4-yl)-4,5,6,7-tetrahydropyrazolo[1,5-a]pyrazine-7-carboxamide] | 17.2 nM | 4.61 nM | 134 nM | 
6 | CN(C)C/C=C/C(=O)N1Cc2c(-c3ccncc3)c(-c3ccc(F)cc3)nn2C(CCO)C1 (racemic) [Example 219, rac-(R,E)-4-(dimethylamino)-1-(2-(4-fluorophenyl)-7-(2-hydroxyethyl)-3-(pyridin-4-yl)-6,7-dihydropyrazolo[1,5-a]pyrazin-5(4H)-yl) but-2-en-1-one] | 1.21 nM | 0.715 nM | 308 nM | 
7 | CN(C)C/C=C/C(=O)N1Cc2c(-c3ccncc3)c(-c3ccc(F)cc3)nn2C(CC(N)=O)C1 (racemic) [Example 220, 2-[(7RS)-5-[(2E)-4-(dimethylamino)but-2-enoyl]-2-(4-fluorophenyl)-3-(pyridin-4-yl)-4,5,6,7-tetrahydropyrazolo[1,5-a]pyrazin-7-yl]acetamide] | 9.66 nM | 4.15 nM | 5880 nM | 
8 | CNC(=O)CC1CN(C(=O)/C=C/CN(C)C)Cc2c(-c3ccncc3)c(-c3ccc(F)cc3)nn21 (racemic) [Example 221, 2-[(7RS)-5-[(2E)-4-(dimethylamino)but-2-enoyl]-2-(4-fluorophenyl)-3-(pyridin-4-yl)-4,5,6,7-tetrahydropyrazolo[1,5-a]pyrazin-7-yl]-N-methylacetamide] | 15.3 nM | 3.69 nM | 2510 nM | 
9 | C=CC(=O)N1C(C)c2c(-c3ccncc3)c(-c3ccc(Cl)cc3F)nn2C[C@H]1C (single isomer, unassigned; isomer 1) [Example 290] |  | 1180 nM |  | 3430 nM
10 | C=CC(=O)N1C(C)c2c(-c3ccncc3)c(-c3ccc(Cl)cc3F)nn2C[C@H]1C (single isomer, unassigned; isomer 2) [Example 291] |  | 1.11 nM |  | 53 nM
11 | CNC/C=C/C(=O)N1CCn2nc(-c3ccc(F)cc3)c(-c3ccncc3)c2C1 [Example 80, (2E)-1-[2-(4-fluorophenyl)-3-(pyridin-4-yl)-6,7-dihydropyrazolo[1,5-a]pyrazin-5(4H)-yl]-4-(methylamino)but-2-en-1-one] |  | 19.4 nM | 1370 nM | 
12 | CCNC/C=C/C(=O)N1CCn2nc(-c3ccc(F)cc3)c(-c3ccncc3)c2C1 [Example 81, (2E)-4-(ethylamino)-1-[2-(4-fluorophenyl)-3-(pyridin-4-yl)-6,7-dihydropyrazolo[1,5-a]pyrazin-5(4H)-yl]but-2-en-1-one] |  | 4.15 nM | 134 nM | 
13 | CN1CCN(C/C=C/C(=O)N2CCn3nc(-c4ccc(F)cc4)c(-c4ccncc4)c3C2)CC1 [Example 82, (2E)-1-[2-(4-fluorophenyl)-3-(pyridin-4-yl)-6,7-dihydropyrazolo[1,5-a]pyrazin-5(4H)-yl]-4-(4-methylpiperazin-1-yl) but-2-en-1-one] |  | 29.6 nM | 739 nM | 
14 | C=CC(=O)N1CCn2nc(-c3cccc(CO)c3)c(-c3ccncc3)c2C1 [Example 121, 1-{2-[3-(hydroxymethyl)phenyl]-3-(pyridin-4-yl)-6,7-dihydropyrazolo[1,5-a]pyrazin-5(4H)-yl}prop-2-en-1-one] |  | 1.88 nM | 213 nM | 
15 | C=CC(=O)N1Cc2c(-c3ccncc3)c(-c3ccc(C(F)(F)F)cc3F)nn2C[C@H]1C [Example 125, 1-[(6R)-2-[2-fluoro-4-(trifluoromethyl)phenyl]-6-methyl-3-(pyridin-4-yl)-6,7-dihydropyrazolo[1,5-a]pyrazin-5(4H)-yl]prop-2-en-1-one] |  | 1.12 nM | 45.5 nM | 
16 | CN(C/C=C/C(=O)N1CCn2nc(-c3ccc(Cl)cc3)c(-c3ccncc3)c2C1)CCO [Example 170, (2E)-1-[2-(4-chlorophenyl)-3-(pyridin-4-yl)-6,7-dihydropyrazolo[1,5-a]pyrazin-5(4H)-yl]-4-[(2-hydroxyethyl)(methyl)amino]but-2-en-1-one] |  | 0.38 nM | 190 nM | 
17 | C=CC(=O)N1CCn2nc(-c3cccc(Cl)c3F)c(-c3ccnc4[nH]cc(C)c34)c2C1 [Example 176, 1-[2-(3-chloro-2-fluorophenyl)-3-(3-methyl-1H-pyrrolo[2,3-b]pyridin-4-yl)-6,7-dihydropyrazolo[1,5-a]pyrazin-5(4H)-yl]prop-2-en-1-one] |  | 166 nM | 62.7 nM | 
18 | C=CC(=O)N1CCn2nc(-c3cccc(C(F)(F)F)c3)c(-c3ccnc4[nH]cc(C)c34)c2C1 [Example 178, 1-(3-(3-methyl-1H-pyrrolo[2,3-b]pyridin-4-yl)-2-(3-(trifluoromethyl)phenyl)-6,7-dihydropyrazolo[1,5-a]pyrazin-5(4H)-yl) prop-2-en-1-one] |  | 207 nM | 58.6 nM | 
19 | C=CC(=O)N1CCn2nc(-c3ccc4cc(F)sc4c3)c(-c3ccnc4[nH]cc(C)c34)c2C1 [Example 181, 1-[2-(2-fluoro-1-benzothiophen-6-yl)-3-(3-methyl-1H-pyrrolo[2,3-b]pyridin-4-yl)-6,7-dihydropyrazolo[1,5-a]pyrazin-5(4H)-yl]prop-2-en-1-one] |  | 59.6 nM | 64.1 nM | 
20 | Cc1c[nH]c2nccc(-c3c(-c4cccc(C(F)(F)F)c4)nn4c3CN(C(=O)/C=C/CN(C)C)CC4)c12 [Example 185, (E)-4-(dimethylamino)-1-(3-(3-methyl-1H-pyrrolo[2,3-b]pyridin-4-yl)-2-(3-(trifluoromethyl)phenyl)-6,7-dihydropyrazolo[1,5-a]pyrazin-5(4H)-yl) but-2-en-1-one] |  | 233 nM | 68.8 nM | 
21 | Cc1c[nH]c2nccc(-c3c(-c4ccc5cc(F)sc5c4)nn4c3CN(C(=O)/C=C/CN(C)C)CC4)c12 [Example 187, (2E)-4-(dimethylamino)-1-[2-(2-fluoro-1-benzothiophen-6-yl)-3-(3-methyl-1H-pyrrolo[2,3-b]pyridin-4-yl)-6,7-dihydropyrazolo[1,5-a]pyrazin-5(4H)-yl]but-2-en-1-one] |  | 30 nM |  | 
